Results published in patent US20260125371A1, “METHOD FOR INHIBITING CLOSTRIDIOIDES DIFFICILE SPORE GERMINATION” (UNIVERSITY OF NOTRE DAME DU LAC, priority 2022, published 2026).

Columns and labels:
Format in all cases: cell-based
[1] = tested on: S. epidermidis ATCC 35547; assay: MIC against S. epidermidis; conditions: Staphylococcus epidermidis, ATCC35547
[2] = tested on: S. pyogenes ATCC 49399; assay: MIC against S. pyogenes; conditions: Streptococcus pyogenes, ATCC49399
[3] = tested on: B. cereus ATCC 13061; assay: MIC against B. cereus; conditions: Bacillus cereus, ATCC13061
[4] = tested on: B. licheniformis ATCC 12759; assay: MIC against B. licheniformis; conditions: Bacillus licheniformis, ATCC12759
[5] = tested on: E. faecalis; assay: MIC against E. faecalis strains; conditions: Enterococcus faecalis

For Cc1ncc([N+](=O)[O-])n1CCO [MTZ, metronidazole], the MIC [1] was greater than 128 µg/mL, the MIC [2] was greater than 128 µg/mL and the MIC [3] was greater than 256 µg/mL. It also gave an MIC [4] greater than 256 µg/mL, an MIC [5] greater than 256 µg/mL and an MIC ([5]; ATCC29212) greater than 256 µg/mL.
